Source: US12409162B2, “Carbazole derivatives sensitizing cells to anti-cancer agents” (CENTRE NATIONAL DE LA RECHERCHE SCIENTIFIQUE, priority 2019, dated 2025)
Like-named read-outs stand apart in the source and are kept apart here.

Legend:
HeLa cells [1] = assay: Cell cycle distribution by flow cytometry; type: cell-based; conditions: for cell cycle effect: HeLa
Protocol: For flow cytometry analysis, Hela cells were treated with the indicated concentrations of compound (I-a) for 12 hours, 24 hours and 48 hours. Cells were then harvested and washed by centrifugation in PBS. Then, 10^5 cells were fixed in 1 mL of 70% methanol at 4° C. overnight. Following two washes with PBS the cells were incubated with 50 μg·mL^−1 propidium iodide and 0.2 mg·mL^−1 RNase A/PBS for 30 min at 37° C. before analysis. The percentage of cells in the specific cell-cycle phases (G0, G1, S, G2, and M) was determined using an Accuri C6 flow cytometer (Becton Dickinson). The results are expressed as the mean±SD of three separate experiments. The significance was determined by a Student's t-test (*p<0.05, **p<0.01, ***p<0.0001, compared with the control). Flow cytometry analysis was performed using HeLa cells. […] The results are expressed as the mean±SD of three separate experiments. The significance was determined by a Student's t-test (*p<0.05, **p<0.01, ***p<0.0001, compared with the control).

[2] = system: microtubule dynamics in GFP-EB3 transfected cells; assay: Microtubule dynamic instability by time-lapse fluorescence microscopy; type: cell-based; conditions: 25 μM
Protocol: The effect of a high dose (25 μM) of compound (I-a) on microtubule dynamic instability parameters was measured using time-lapse fluorescence microscopy on GFP-EB3 transfected cells (Table 1).

HeLa cell tumors = assay: HeLa cell xenograft tumor growth in mice; type: in vivo; conditions: for weight of treated animals versus vehicle-treated animals: paclitaxel 2 to 8 mg/Kg or (I-a) 15 to 60 mg/Kg i.v. every two days during 10 days
Protocol: The effects on tumor growth of compound (I-a) and paclitaxel injected separately to the effect of a combined administration of compound (I-a) plus paclitaxel were compared in a tumor mouse model.
A first series of experiments (not shown) assessed that HeLa cell tumors were sensitive to therapeutic doses of paclitaxel. To that aim, mice bearing sizable tumors, formed of HeLa cells that have been xenografted, received intraveinous (i.v.) injections of paclitaxel (from 2 to 8 mg/Kg), every two days during 10 days. In the same experiment, the effect of compound (I-a) (from 15 to 60 mg/Kg, i.v.) injected with the same schedule was analyzed. […] The results confirmed the anti-tumor effect of high paclitaxel concentrations in this model. They also indicate that compound (I-a), when applied alone, has no significant anti-tumor activity, even at high concentrations.
A second experiment was conducted to study of the effect on tumor size of low (2 to 3 mg/Kg) paclitaxel doses in combination with different concentrations of compound (I-a).
Protocol for this combination study: 72 NMRI nude mice (5-week-old females) were injected subcutaneously with 10×10^6 exponentially dividing HeLa cells into the right flank. When tumors have reached a volume of about 200 mm 3 i.e. nine days after cell injection, mice were randomized in 9 groups of 8 mice each and drugs were injected intraveinously every two days. The first group received paclitaxel at 2 mg/kg, the second group received paclitaxel at 3 mg/Kg, the third group received compound (I-a) at 40 mg/Kg, the fourth group received compound (I-a) at 60 mg/Kg, the fifth group received a combination of compound (I-a) (40 mg/Kg) and paclitaxel (2 mg/Kg), the sixth group received a combination of compound (I-a) (40 mg/Kg) and paclitaxel (3 mg/Kg), the seventh group received a combination of compound (I-a) (60 mg/Kg) and paclitaxel (2 mg/Kg), the eight group received a combination of compound (I-a) (60 mg/Kg) and paclitaxel (3 mg/Kg) and the ninth group received the vehicle (14% DMSO, 14% Tween 80 and 72% PBS). Tumor growth was monitored three times per week with a sliding caliper.

RPE-1 cells = assay: Prestoblue viability assay on non-cancerous RPE-1 cells; type: cell-based
Protocol: RPE-1 cells were incubated for 72 hours with the indicated combinations of compound (I-a)/paclitaxel. The percentage of viable cells was calculated following a Prestoblue assay, as described above. Data are presented as mean±SEM of 3 independent experiments.

HeLa cells [3] = assay: FITC Annexin V apoptosis assay by flow cytometry; type: cell-based
Protocol: Apoptosis assay was performed with FITC Annexin V Apoptosis Detection Kit I (BD Biosciences, #556547) using flow cytometry and analyzed by FCS express software.

4T1 cells = assay: Prestoblue cell viability assay on murine cancer cells; type: cell-based; conditions: mice breast cancer cell line (4T1 cells), 72 h
Protocol: (§1) Cell viability was analyzed using the colorimetric Prestoblue assay (Invitrogen, #A13262). Cells were seeded in 96 well microplates (Greiner, #655077) at a density of 2,500 cells per well and allowed to adhere for 24 h before being treated for 72 h with either DMSO (0.1% final concentration) or drugs at indicated concentrations. After the 72 h treatment, 10 μL Prestoblue was added to each well and cells were incubated for another 45 min. The absorbance of each well was measured using FLUOstar Optima microplate reader (Excitation, 544 nm; Emission, 580 nm).

HeLa cells [4] = assay: Immunofluorescence of microtubules and DNA; type: cell-based
Protocol: The effect of a compound of formula (I) on cell cycle and mitosis of HeLa cells was analyzed by flow cytometry and immunofluorescence.
For immunofluorescence analysis, cells were grown for 48 hours on glass coverslips placed in 24-wells microplates. When cells reached 70% confluence the medium was replaced with a fresh one supplemented with compound (I-a). After a 5-hour exposure to compound (I-a), cells were fixed and permeabilized with −20° C. absolute methanol for 6 min. After washing and saturation with 3% BSA/PBS, cells were incubated for 45 min at room temperature (RT) with anti-alpha-tubulin antibody (1:4000). Cells were washed twice again and subsequently incubated with Alexa 488 conjugated anti-mouse antibody (1:1000) for 30 min at RT. DNA was stained with 20 μmol·L^−1 Hoechst 33342 and coverslips were mounted on microscopic slides with Mowiol 4-88 (Calbiochem, #475904). Images were captured with a Zeiss AxioimagerM2 microscope equipped with the acquisition software AxioVision and analyzed using the Fiji software.

HeLa cells [5] = assay: Prestoblue cell viability assay on HeLa cells (compounds alone and with paclitaxel); type: cell-based; conditions: for GI50: Homo sapiens, HeLa, 72 h
Protocol: as §1, with “μL A” for “μL”
First, the cytotoxicity on HeLa cells of compounds (I-a), (I-c) (I-f), (I-h), (I-e), (I-m), (I-n) and (I-s) was assessed with the above described “prestoblue” assay.
Then, HeLa cells were treated during 72 hours with different concentrations of a mixture of paclitaxel (0.05, 0.1, 0.25, 0.5, 1, 2.5, 5 nM) and compounds (I-a), (I-f), (I-h), (I-e), (I-m), (I-n), (I-c) and (I-s).

[6] = combination study, each compound administered separately (paclitaxel 2 or 3 mg/Kg, (I-a) 40 or 60 mg/Kg)
[7] = compound alone, HeLa cells, read-out: GI50 (50% of growth inhibition)
[8] = paclitaxel 5 nM, after 15 hours

Cc1cc(-n2cccc2)c(C)c2c1[nH]c1ccc(Cl)cc12 [Compound (I-a)]
cell cycle effect (HeLa cells [1]; compound (I-a) 12 μM): blocked in G2/M phase | cell cycle effect (HeLa cells [1]; compound (I-a) 25 μM): the large majority of the cells is blocked in prometaphase | % time spent growing [2]: 60.40 ± 0.25 % | % time spent in pause [2]: 39.60 ± 0.31 % | Catastrophe frequency (min^−1 ± SE) [2]: 2.74 ± 0.70 min⁻¹ | Growth rate (μm/min ± SE) [2]: 10.20 ± 0.05 μm/min | Catastrophe frequency (μm^−1 ± SE) ([2]; distance-based): 0.46 ± 0.05 *** μm^−1 | tumor size (HeLa cell tumors; [6]): no effect | tumor size (HeLa cell tumors; first experiment, compound (I-a) alone 15 to 60 mg/Kg i.v. every two days): did not induce a significant effect on tumor size | weight of treated animals versus vehicle-treated animals (HeLa cell tumors; first experiment): not significantly different | toxicity toward non-cancerous cells (RPE-1 cells; 72 hours): does not induce additional toxicity | effect on cell viability in combination with PTX (RPE-1 cells; compound at 25 μM): able to synergistically affect cell viability | effect on cell apoptosis when combined with paclitaxel (HeLa cells [3]): synergistic effect | effect of the combination with paclitaxel on cell viability (4T1 cells): synergistic effect | chromosome congression in mitotic cells (HeLa cells [4]; 12 μM): chromosome congression defects were visible in several mitotic cells | chromosome congression in mitotic cells (HeLa cells [4]; 25 μM): occurrence of such defects was increased | effect on microtubule network in interphase cells (HeLa cells [4]; 12-25 μM, 5-hour exposure): does not visibly perturb microtubule network | cytotoxicity of the compound on its own (HeLa cells [5]; 12 μM, HeLa cells): not cytotoxic | GI50 (HeLa cells [5]; [7]): 19400 to 21800 nM

Cc1cc(-n2ccc(C=O)c2)c(C)c2c1[nH]c1ccc(Br)cc12 [Compound (I-h)]
GI50 (HeLa cells [5]; [7]): 1060 nM

CC(=O)O[C@H]1C(=O)[C@@]2(C)[C@H]([C@H](OC(=O)c3ccccc3)[C@]3(O)C[C@H](OC(=O)[C@H](O)[C@@H](NC(=O)c4ccccc4)c4ccccc4)C(C)=C1C3(C)C)[C@]1(OC(C)=O)CO[C@@H]1C[C@@H]2O [Paclitaxel, paclitaxel]
cell population blocked in G2/M phase (HeLa cells [1]; [8]): half of the cell population | cells in apoptosis (HeLa cells [1]; [8]): ~20% | tumor size (HeLa cell tumors; [6]): no effect | weight of treated animals versus vehicle-treated animals (HeLa cell tumors; first experiment): not significantly different | tumor size (HeLa cell tumors; first experiment, paclitaxel 4 and 8 mg/Kg i.v. every two days during 10 days): important reduction of tumor size | GI50 (RPE-1 cells; Homo sapiens, 72 hours): 7 nM | % of apoptosis (HeLa cells [3]; Paclitaxel 1 nM): 13.00 ± 0.48% | GI50 (HeLa cells [5]; 0.1 μM compound (I-h) added to paclitaxel, read-out: GI50 of Paclitaxel): 1.25 nM | GI50 (HeLa cells [5]; 0.2 μM compound (I-h) added to paclitaxel, read-out: GI50 of Paclitaxel): 1.07 nM | GI50 (HeLa cells [5]; 0.4 μM compound (I-h) added to paclitaxel, read-out: GI50 of Paclitaxel): 0.79 nM | GI50 (HeLa cells [5]; 0.8 μM compound (I-e) added to paclitaxel, read-out: GI50 of Paclitaxel): 1.36 nM | GI50 (HeLa cells [5]; 1.2 μM compound (I-c) added to paclitaxel, read-out: GI50 of Paclitaxel): 0.75 nM | GI50 (HeLa cells [5]; 1.2 μM compound (I-s) added to paclitaxel, read-out: GI50 of Paclitaxel): 0.75 nM | GI50 (HeLa cells [5]; 1.5 μM compound (I-e) added to paclitaxel, read-out: GI50 of Paclitaxel): 1.25 nM | GI50 (HeLa cells [5]; 1.5 μM compound (I-f) added to paclitaxel, read-out: GI50 of Paclitaxel): 1.36 nM | GI50 (HeLa cells [5]; 3 μM compound (I-a) added to paclitaxel, read-out: GI50 of Paclitaxel): 1.36 nM | GI50 (HeLa cells [5]; 3 μM compound (I-e) added to paclitaxel, read-out: GI50 of Paclitaxel): 1.2 nM | GI50 (HeLa cells [5]; 3 μM compound (I-f) added to paclitaxel, read-out: GI50 of Paclitaxel): 1.25 nM | GI50 (HeLa cells [5]; 3 μM compound (I-m) added to paclitaxel, read-out: GI50 of Paclitaxel): 1.5 nM | GI50 (HeLa cells [5]; 3 μM compound (I-n) added to paclitaxel, read-out: GI50 of Paclitaxel): 1.5 nM | GI50 (HeLa cells [5]; 6 μM compound (I-a) added to paclitaxel, read-out: GI50 of Paclitaxel): 1.2 nM | GI50 (HeLa cells [5]; 6 μM compound (I-f) added to paclitaxel, read-out: GI50 of Paclitaxel): 0.88 nM | GI50 (HeLa cells [5]; 6 μM compound (I-m) added to paclitaxel, read-out: GI50 of Paclitaxel): 1.5 nM | GI50 (HeLa cells [5]; 6 μM compound (I-n) added to paclitaxel, read-out: GI50 of Paclitaxel): 1.5 nM | GI50 (HeLa cells [5]; 12 μM compound (I-a) added to paclitaxel, read-out: GI50 of Paclitaxel): 0.68 nM | GI50 (HeLa cells [5]; 12 μM compound (I-m) added to paclitaxel, read-out: GI50 of Paclitaxel): 1.25 nM | GI50 (HeLa cells [5]; 12 μM compound (I-n) added to paclitaxel, read-out: GI50 of Paclitaxel): 1.25 nM | GI50 (HeLa cells [5]; paclitaxel alone (0 μM compound added), HeLa cells, read-out: GI50 of Paclitaxel): 1.5 nM

Cc1cc(-n2cccc2)c(C)c2c1[nH]c1cc(Cl)ccc12 [(I-e)]
GI50 (HeLa cells [5]; [7]): 14800 nM

Cc1cc(-n2ccc(C=O)c2)c(C)c2c1[nH]c1ccc(Cl)cc12 [(I-c)]
GI50 (HeLa cells [5]; [7]): 2000 nM

Cc1cc(-n2ccc(CO)c2)c(C)c2c1[nH]c1ccc(Cl)cc12 [Compound (I-s)]
GI50 (HeLa cells [5]; [7]): 2000 nM

Cc1cc(-n2cccc2)c(C)c2c1[nH]c1ccc(Br)cc12 [(I-f)]
GI50 (HeLa cells [5]; [7]): 16200 nM
